Assay results: patent publication US20250099448A1, “HETEROCYCLIC COMPOUNDS” (Hoffmann-La Roche Inc., priority 2022, published 2025)

molecular target: T1, MAGL protein (Homo sapiens, UniProt Q99685); experiment: 2-AG assay: MAGL inhibitory activity by hydrolysis of 2-arachidonoylglycerol to arachidonic acid, followed by mass spectrometry; format: biochemical; conditions: 8 μM 2-arachidonoylglycerol, 15 min preincubation, 30 min reaction at RT, RapidFire MS readout
T1 sequence (Q99685 1-303): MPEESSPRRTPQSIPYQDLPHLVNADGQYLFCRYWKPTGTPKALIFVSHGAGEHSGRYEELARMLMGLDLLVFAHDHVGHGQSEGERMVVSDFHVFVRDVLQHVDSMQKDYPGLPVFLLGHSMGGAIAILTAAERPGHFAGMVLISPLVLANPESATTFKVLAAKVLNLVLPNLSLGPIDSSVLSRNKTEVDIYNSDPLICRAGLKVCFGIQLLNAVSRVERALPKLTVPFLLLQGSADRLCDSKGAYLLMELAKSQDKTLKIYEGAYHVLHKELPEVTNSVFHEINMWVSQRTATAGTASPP
Summary of the method: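 Activity was measured by RapidFire SPE–triple-quad MS as the ratio of arachidonic acid to d8-arachidonic acid after 2-AG hydrolysis (8 μM substrate, 30 min, RT, acetonitrile quench). Compounds, tested from 12.5 μM down to […], were first preincubated 15 min with MAGL in TRIS/EDTA/Tween-20 buffer containing 2.5% DMSO.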

Row | SMILES | IC50
1 | Cc1c(CN2CC3(C2)CN(C(=O)N2CC4(CC(c5nnc(C6CC6)[nH]5)C4)C2)C3)cnn1C [compound 897] | 308 nM
2 | Cc1nc(C)c(CN2CC3(C2)CN(C(=O)N2CC4(CC(c5nnc(C6CC6)[nH]5)C4)C2)C3)o1 [compound 898] | 218 nM
3 | O=C(N1CC2(CC(c3nc(C4CC4)n[nH]3)C2)C1)N1CC2(CN(Cc3cc(C4CC4)n[nH]3)C2)C1 [compound 900] | 25.3 nM
4 | Cn1nccc1CN1CC2(C1)CN(C(=O)N1CC3(CC(c4nc(C5CC5)n[nH]4)C3)C1)C2 [compound 901] | 136 nM
5 | O=C(N1CCC(OCc2ccc(OC(F)(F)F)cc2F)CC1)N1CC2(CC(c3nc(C4CC4)n[nH]3)C2)C1 [compound 905] | 5.92 nM
6 | CP(C)(=O)c1ccc(CC2CC3(C2)CN(C(=O)N2CC4(CC(c5nnc(C6CC6)[nH]5)C4)C2)C3)cc1 [compound 926] | 6.58 nM
7 | O=C(N1CC2(CCC(Cc3ccc(C(F)(F)F)cn3)C2)C1)N1CC2(CC(c3nc(C4(O)CC4)n[nH]3)C2)C1 (stereo not drawn) [compound 927] | 2.51 nM
8 | O=C(N1CC(C23CC(Cc4nnc(C5CC5)o4)(C2)C3)C1)N1CC2(CC(c3nc(C4CC4)n[nH]3)C2)C1 [compound 928] | 2.53 nM
9 | O=C(N1CC2(CCC(Cc3ncc(F)cc3F)C2)C1)N1CC2(CC(c3nc(C4(O)CC4)n[nH]3)C2)C1 (stereo not drawn) [compound 929] | 3.85 nM
10 | O=C(N1CC(c2ccc(-n3cnc(C4CC4)n3)cc2)C1)N1CC2(CC(c3nnc(C4CC4)[nH]3)C2)C1 [compound 934] | 4.44 nM
11 | O=C(N1CC2(CC(c3nnc(C4CC4)[nH]3)C2)C1)N1CC2(C1)CN(c1cncc(F)c1)C2 [compound 936] | 138 nM
12 | O=C(N1CC(c2ccc(N3CC4(CCCC4)C3)nc2)C1)N1CC2(CC(c3nc(C4(O)CC4)n[nH]3)C2)C1 [compound 937] | 1.58 nM
13 | CS(=O)(=O)c1ccc(C2CC3(C2)CN(C(=O)N2CC4(CC(c5nnc(C6CC6)[nH]5)C4)C2)C3)cc1 [compound 939] | 3.41 nM
14 | O=C(N1CC(C23CC(COc4cc(C(F)(F)F)ccn4)(C2)C3)C1)N1CC2(CC(c3nc(C4CC4)n[nH]3)C2)C1 [compound 942] | 1.32 nM
15 | O=C(N1CC2(CC(c3nc(C4CC4)n[nH]3)C2)C1)N1CC2(CC(C(F)(F)c3cnc(C(F)(F)F)cn3)C2)C1 [compound 944] | 0.96 nM
16 | O=C(N1CC(C23CC(Cn4cc(C(F)(F)F)ccc4=O)(C2)C3)C1)N1CC2(CC(c3nc(C4CC4)n[nH]3)C2)C1 [compound 946] | 1.05 nM
17 | O=C(N1CC(C23CC(Cn4ccc(C(F)(F)F)cc4=O)(C2)C3)C1)N1CC2(CC(c3nc(C4CC4)n[nH]3)C2)C1 [compound 947] | 9.12 nM
18 | N=S(=O)(c1cnn(CC2CC3(C2)CN(C(=O)N2CC4(CC(c5nc(C6CC6)n[nH]5)C4)C2)C3)c1)C(F)(F)F (stereo not drawn) [compound 950] | 3.03 nM
19 | CS(=N)(=O)c1ccc(CC2CC3(C2)CN(C(=O)N2CC4(CC(c5nc(C6CC6)n[nH]5)C4)C2)C3)cc1C(F)(F)F (stereo not drawn) [compound 952] | 1.74 nM
20 | CS(=O)(=O)c1cnn(CC2CC3(C2)CN(C(=O)N2CC4(CC(c5nc(C6CC6)n[nH]5)C4)C2)C3)c1 [compound 953] | 11.2 nM

Row | SMILES | IC50
21 | O=C(N1CC2(CC(Cc3c[nH]c(=O)c(C(F)F)c3)C2)C1)N1CC2(CC(c3nc(C4CC4)n[nH]3)C2)C1 [compound 954] | 1.42 nM
22 | O=C(N1CC2(CC(Cc3cc(C(F)F)c[nH]c3=O)C2)C1)N1CC2(CC(c3nc(C4CC4)n[nH]3)C2)C1 [compound 956] | 1.48 nM
23 | O=C(N1CC2(CC(c3nc(C4CC4)n[nH]3)C2)C1)N1CC2(CN(Cc3noc(C(F)(F)F)n3)C2)C1 [compound 957] | 97.3 nM
24 | O=C(N1CC2(CC(c3nc(C4CC4)n[nH]3)C2)C1)N1CC2(CN(Cc3nc(C4(C(F)(F)F)CC4)no3)C2)C1 [compound 959] | 7.44 nM
25 | O=C(N1CC2(CC(Cn3cc(C(F)(F)F)ncc3=O)C2)C1)N1CC2(CC(c3nc(C4CC4)n[nH]3)C2)C1 [compound 960] | 5.16 nM
26 | O=C(N1CC2(CC(Cc3ncn(CC(F)(F)F)n3)C2)C1)N1CC2(CC(c3nc(C4CC4)n[nH]3)C2)C1 [compound 962] | 4.41 nM
27 | O=C(N1CC2(CC(c3nc(C4CC4)n[nH]3)C2)C1)N1CC2(CN(Cc3ccc(OCC(F)(F)F)nc3)C2)C1 [compound 963] | 3.95 nM
28 | O=C(N1CC2(CC(c3nc(C4CC4)n[nH]3)C2)C1)N1CC2(CN(Cc3ccn(CCC(F)(F)F)n3)C2)C1 [compound 972] | 81.1 nM
29 | O=C(N1CC(C23CC(C(F)(F)c4ccc(C(F)(F)F)cc4)(C2)C3)C1)N1CC2(CC(c3nc(C4(O)CC4)n[nH]3)C2)C1 [compound 974] | 6.17 nM
30 | Cc1cc(C23CC(C4CN(C(=O)N5CC6(CC(c7nc(C8CC(F)(F)C8)n[nH]7)C6)C5)C4)(C2)C3)[nH]n1 [compound 975] | 1550 nM
31 | CS(=N)(=O)c1ccc(CC2CC3(C2)CN(C(=O)N2CC4(CC(c5nc(C6CC(F)(F)C6)n[nH]5)C4)C2)C3)cc1 (stereo not drawn) [compound 976] | 1790 nM
32 | CS(=O)(=O)c1ccc(CC2CC3(C2)CN(C(=O)N2CC4(CC(c5nc(C6CC(F)(F)C6)n[nH]5)C4)C2)C3)nc1 [compound 977] | 2580 nM
33 | O=C(N1CC(c2cnc(N3CC(C(F)(F)F)C3)nc2)C1)N1CC2(CC(c3nc(C4CC(F)(F)C4)n[nH]3)C2)C1 [compound 978] | 2210 nM
34 | CS(=O)(=O)c1ccc(-c2ccc(C3CN(C(=O)N4CC5(CC(c6ncn[nH]6)C5)C4)C3)cc2)c(Cl)c1 [compound 981] | 1770 nM
35 | O=C(N1CC2(CC(c3ncn[nH]3)C2)C1)N1CC2(CC(c3ccc(C(F)(F)F)cc3F)C2)C1 [compound 982] | 4970 nM
36 | O=C(N1CC2(CC(CNC3(C(F)(F)F)CC3)C2)C1)N1CC2(CC(c3ncn[nH]3)C2)C1 [compound 983] | 2180 nM
37 | CS(=O)(=O)c1ccc(CC2CC3(C2)CN(C(=O)N2CC4(CC(c5ncn[nH]5)C4)C2)C3)cc1C(F)(F)F [compound 984] | 2770 nM
38 | O=C(N1CC2(CC(Cc3cc(C(F)(F)F)ccn3)C2)C1)N1CC2(CC(c3ncn[nH]3)C2)C1 [compound 985] | 2990 nM
39 | O=C(N1CC2(CC(Cc3ccc(C(F)(F)F)nc3)C2)C1)N1CC2(CC(c3ncn[nH]3)C2)C1 [compound 986] | 2360 nM

Molecules with a lower IC50, results first:

Row | IC50 | SMILES
40 | 0.58 nM | O=C(N1CC2(CC(c3ccc(C(F)(F)F)cc3)C2)C1)N1CC2(CC(c3nnc(C4CC4)[nH]3)C2)C1 [compound 940]
41 | 0.51 nM | CS(=O)(=O)c1ccccc1C12CC(C3CN(C(=O)N4CC5(CC(c6nc(C7CC7)n[nH]6)C5)C4)C3)(C1)C2 [compound 909]
42 | 0.44 nM | NC(=O)c1ccc(CC2CC3(C2)CN(C(=O)N2CC4(CC(c5nc(C6CC6)n[nH]5)C4)C2)C3)cc1OC(F)(F)F [compound 913]
43 | 0.44 nM | O=C(N1CC2(CC(Cn3cncc3C3(C(F)(F)F)CC3)C2)C1)N1CC2(CC(c3nc(C4CC4)n[nH]3)C2)C1 [compound 964]
44 | 0.42 nM | O=C(N1CC2(CC(Oc3cc(C(F)(F)F)ccn3)C2)C1)N1CC2(CC(c3nc(C4CC4)n[nH]3)C2)C1 [compound 969]
45 | 0.39 nM | O=C(N1CC(c2ccc(-n3cnc(C(F)(F)F)n3)cc2)C1)N1CC2(CC(c3nnc(C4CC4)[nH]3)C2)C1 [compound 930]
46 | 0.29 nM | O=C(N1CC2(CC(c3nnc(C4CC4)[nH]3)C2)C1)N1CC2(CC(c3ccc(C(F)(F)F)cc3F)C2)C1 [compound 938]
47 | 0.28 nM | O=C(N1CC2(CC(Cn3cc(S(=O)(=O)C(F)(F)F)cn3)C2)C1)N1CC2(CC(c3nc(C4CC4)n[nH]3)C2)C1 [compound 951]
48 | 0.27 nM | NC(=O)c1cc(CC2CC3(C2)CN(C(=O)N2CC4(CC(c5nc(C6CC6)n[nH]5)C4)C2)C3)ccc1OC(F)(F)F [compound 914]
49 | 0.27 nM | O=C(N1CC2(CC(Cn3nccc3C3CC3)C2)C1)N1CC2(CC(c3nc(C4CC4)n[nH]3)C2)C1 [compound 973]
50 | 0.18 nM | Cc1cc([C@H](C)C2CC3(C2)CN(C(=O)N2CC4(CC(c5nc(C6CC6)n[nH]5)C4)C2)C3)ncc1C(F)(F)F [compound 967]
51 | 0.16 nM | O=C(N1CC(C23CC(Cn4cc(C(F)(F)F)cn4)(C2)C3)C1)N1CC2(CC(c3nc(C4CC4)n[nH]3)C2)C1 [compound 949]
52 | 0.16 nM | O=C(N1CC2(CC(COc3ccc(C(F)(F)F)cn3)C2)C1)N1CC2(CC(c3nc(C4CC4)n[nH]3)C2)C1 [compound 970]
53 | 0.14 nM | Cc1cc([C@@H](C)C2CC3(C2)CN(C(=O)N2CC4(CC(c5nc(C6CC6)n[nH]5)C4)C2)C3)ncc1C(F)(F)F [compound 966]
54 | 0.09 nM | COc1nc(C(F)(F)F)cnc1CC1CC2(C1)CN(C(=O)N1CC3(CC(c4nc(C5CC5)n[nH]4)C3)C1)C2 [compound 943]
55 | 0.07 nM | COC(=O)c1cc(CC2CC3(C2)CN(C(=O)N2CC4(CC(c5nc(C6CC6)n[nH]5)C4)C2)C3)ccc1OC(F)(F)F [compound 912]
56 | 0.07 nM | O=C(N1CC2(CC(Cc3cc(C4(C(F)(F)F)CC4)[nH]n3)C2)C1)N1CC2(CC(c3nc(C4CC4)n[nH]3)C2)C1 [compound 945]
57 | 0.05 nM | O=C(N1CC(c2ccc(C3(S(=O)(=O)C(F)(F)F)CC3)cc2)C1)N1CC2(CC(c3nc(C4CC4)n[nH]3)C2)C1 [compound 968]
58 | 0.04 nM | O=C(N1CC(C23CC(COc4ccc(C(F)(F)F)cn4)(C2)C3)C1)N1CC2(CC(c3nc(C4CC4)n[nH]3)C2)C1 [compound 941]
59 | 0.03 nM | COC(=O)c1ccc(CC2CC3(C2)CN(C(=O)N2CC4(CC(c5nc(C6CC6)n[nH]5)C4)C2)C3)cc1OC(F)(F)F [compound 911]
60 | 0.03 nM | CC(C)Oc1nc(CC2CC3(C2)CN(C(=O)N2CC4(CC(c5nc(C6CC6)n[nH]5)C4)C2)C3)ccc1C(F)(F)F [compound 965]
